Patent US9649314B2, “Pyrimido[4,5-b]quinoline-4,5(3H,10H)-diones” (NOVARTIS AG, priority 2012, dated 2017)
Like-named read-outs stand apart in the source and are kept apart here.

System: CFTR-Y122X
Experiment: CFTR-Y122X assay (dual reporter isogenic Hek293 cell lines, Renilla luminescence readthrough)
Type: cell-based
Conditions: Homo sapiens, HEK293
Source text: Activity of compounds of the present invention was examined in recombinant, dual reporter isogenic Hek293 cell lines (“CFTR-Y122X assay”). The engineered reporter constructs contained the 18 bp sequence stretch corresponding to a common Y122X PTC mutation in CFTR class I mutant patients (see Sermet-Gaudelus, BMC Medicine, 2007, 5(5)). Instead of a tyrosine (Y) in position 122 of the CFTR protein a TGA stop codon interrupts the open reading frame (Y122X) of the corresponding mRNA. This TGA stop codon triplet (followed by the pyrimidine base cytosine) is permissive to aminoglycoside mediated translational readthrough which served as positive control for high throughput screening. A corresponding TAA stop codon variant and a wildtype non mutated construct was used for confirmation and counter screening. The CFTR sequence was sandwiched between an eGFP reporter, and a triple myc tag sequence fused to a full length Renilla reporter. All sequences, including an intron containing one positioned pre-eGFP (b-globin intron) were cloned in frame. The corresponding expression constructs were stably expressed in the isogenic HEK-R4 cell host (Invitrogen Incorp.) and selected by blasticidin resistance. The isogenic integration of the construct minimizes gene dose effects and improves assay reproducibility. Stably integrated single cell derived clones were selected and characterized for aminoglycoside mediated readthrough. […] Readthrough of Y122X accumulates an intracellular localized fusion protein approximately 65.5 kDa in size as controlled by western blot analysis and immunofluorescence using an anti-renilla antibody. The eGFP reporter pre-PTC mutation serves as visual control for genetic stability of the screening clones and minimizes protein degradation of small fusion protein amounts. In the assay, compound concentration was 10 μM. In miniaturized 1536 well format 2000 cells were dispensed in 4 μl/well and incubated for 24 h at 37° C., 5% CO2. 40 nl compounds were placed on the cells with control wells containing 1 ul Paramomycin and 14.4 mM final concentration. Compounds were incubated for 24 h. Renilla Glo substrate (2.5 ul) was added and plates were centrifuged and processed for luminescence measurement using various readers. Activity calculation was done using the equation: A1 (%)=100*(S−NC)/(AC−NC) where AC, NC and S correspond to active controls (injection of Stimulation buffer=100% stimulation), neutral controls (buffer injection which Iloprost EC10) and screening samples (S). NC corresponds to 0% activity whereas AC is 100% activity (14 mM paromomycin). False positive artefacts were removed in confirmation and validation screening using the same assay format followed by counterscreening using the respective wildtype construct (w/o PTC mutation) cell model. Compounds were tested up to 100 μM compound concentration.

[1] = nonsense mutation suppression, 100% = 14 mM paromomycin, 24 h incubation, tested up to 100 μM, read-out: Amax [%]
[2] = nonsense mutation suppression, 24 h incubation
[3] = at the above dose ranges (up to 100 μM), read-out: suppression, % of paromomycin reference activity

| Structure (SMILES) | Emax [1] | AC50 [2] | also measured |
| --- | --- | --- | --- |
| CC(C)c1nc2c(c(=O)c3ccccc3n2C)c(=O)n1C1CCCOC1 (centres unmarked) [Example 1.45, 2-isopropyl-10-methyl-3-(tetrahydro-2H-pyran-3-yl)pyrimido[4,5-b]quinoline-4,5(3H,10H)-dione] | 389% | 4.7 µM | – |
| Cn1c2ccccc2c(=O)c2c(=O)n(C3CCCCCC3)c(-c3ccccc3)nc21 [Example 2.26, 3-cycloheptyl-10-methyl-2-phenylpyrimido[4,5-b]quinoline-4,5(3H,10H)-dione] | 97% | 11.1 µM | – |
| CCCCc1nc2c(c(=O)c3ccccc3n2C)c(=O)n1-c1ccccc1 [Example 1.12, 2-butyl-10-methyl-3-phenylpyrimido[4,5-b]quinoline-4,5(3H,10H)-dione] | 391% | 4.8 µM | – |
| CCCc1nc2c(c(=O)c3ccccc3n2C)c(=O)n1C1CCCC1 [Example 2.21, 3-cyclopentyl-10-methyl-2-propylpyrimido[4,5-b]quinoline-4,5(3H,10H)-dione] | 214% | 7.6 µM | – |
| COc1cc(-c2nc3c(c(=O)c4ccccc4n3C)c(=O)n2C2CCCCCC2)cc(OC)c1OC [Example 2.42, 3-cycloheptyl-10-methyl-2-(3,4,5-trimethoxyphenyl)pyrimido[4,5-b]quinoline-4,5(3H,10H)-dione] | 18% | 10.7 µM | – |
| Cn1c2ccccc2c(=O)c2c(=O)n(C3CCCCC3)c(-c3ccc([N+](=O)[O-])cc3)nc21 [Example 2.45, 3-cyclohexyl-10-methyl-2-(4-nitrophenyl)pyrimido[4,5-b]quinoline-4,5(3H,10H)-dione] | 14% | 11 µM | – |
| CC(C)c1nc2c(c(=O)c3ccccc3n2C)c(=O)n1-c1ccccc1Br [Example 1.40, 3-(2-bromophenyl)-2-isopropyl-10-methylpyrimido[4,5-b]quinoline-4,5(3H,10H)-dione] | 112% | 12.1 µM | – |
| Cn1c2ccccc2c(=O)c2c(=O)n(C3CCCC3)c(C3CCCN(C4CCCC4)C3)nc21 (centres unmarked) [3-cyclopentyl-2-(1-cyclopentylpiperidin-3-yl)-10-methylpyrimido[4,5-b]quinoline-4,5(3H,10H)-dione] | – | – | Emax [3]: < 5% |
| Cn1c2ccccc2c(=O)c2c(=O)n(C3CCCCC3)c(-c3ccc(C(C)(C)C)cc3)nc21 [2-(4-(tert-butyl)phenyl)-3-cyclohexyl-10-methylpyrimido[4,5-b]quinoline-4,5(3H,10H)-dione] | – | – | Emax [3]: < 5% |
| Cn1c2ccccc2c(=O)c2c(=O)n(C3CCCC3)c(-c3ccc(F)cc3)nc21 [Example 2.33, 3-cyclopentyl-2-(4-fluorophenyl)-10-methylpyrimido[4,5-b]quinoline-4,5(3H,10H)-dione] | – | – | Emax at 100 µM (measured at 100 μM compound concentration (footnote d), read-out: Amax [%]: % nonsense mutation suppression relative to paromomycin reference activity): 18% |
| CC(C)c1nc2c(c(=O)c3ccccc3n2C)c(=O)n1C1CCOC1 (centres unmarked) [2-isopropyl-10-methyl-3-(tetrahydrofuran-3-yl)pyrimido[4,5-b]quinoline-4,5(3H,10H)-dione] | – | – | Emax [3]: < 5% |
| Cc1ccc2c(c1)c(=O)c1c(=O)n(-c3ccccc3)c(C(C)C)nc1n2C [Example 1.26, 2-isopropyl-7,10-dimethyl-3-phenylpyrimido[4,5-b]quinoline-4,5(3H,10H)-dione] | 254% | 9.6 µM | – |
| CCc1nc2c(c(=O)c3ccccc3n2C)c(=O)n1-c1ccccc1 [Example 1.31, 2-ethyl-10-methyl-3-phenylpyrimido[4,5-b]quinoline-4,5(3H,10H)-dione] | 177% | 10.6 µM | – |
| CCn1c2ccccc2c(=O)c2c(=O)n(C3CCCC3)c(C(C)C)nc21 [Example 2.3, 3-cyclopentyl-10-ethyl-2-isopropylpyrimido[4,5-b]quinoline-4,5(3H,10H)-dione] | 101% | 21.6 µM | – |
| O=c1c2ccccc2n(CCO)c2nc(C3CCC3)n(-c3ccccc3)c(=O)c12 [Example 1.39, 2-cyclobutyl-10-(2-hydroxyethyl)-3-phenylpyrimido[4,5-b]quinoline-4,5(3H,10H)-dione] | 250% | 3.2 µM | – |
| CC(C)c1nc2c(c(=O)c3ccccc3n2C)c(=O)n1C1CCCC1 [Example 2.15, 3-cyclopentyl-2-isopropyl-10-methylpyrimido[4,5-b]quinoline-4,5(3H,10H)-dione] | 275% | 3.8 µM | – |
| CC(C)c1nc2c(c(=O)c3cccc(Cl)c3n2C)c(=O)n1C1CCCC1 [Example 2.51, 9-chloro-3-cyclopentyl-2-isopropyl-10-methylpyrimido[4,5-b]quinoline-4,5(3H,10H)-dione] | – | – | Emax at 25 µM (measured at 25 μM compound concentration (footnote a), read-out: Amax [%]: % nonsense mutation suppression relative to paromomycin reference activity): 6% |
| COc1cccc(-n2c(C(C)C)nc3c(c(=O)c4ccccc4n3C)c2=O)c1 [Example 1.22, 2-isopropyl-3-(3-methoxyphenyl)-10-methylpyrimido[4,5-b]quinoline-4,5(3H,10H)-dione] | 23% | 1.9 µM | – |
| CN(C)c1nc2[nH]c3ccccc3c(=O)c2c(=O)n1-c1ccccc1 [Example 3.2, 2-(dimethylamino)-3-phenylpyrimido[4,5-b]quinoline-4,5(3H,10H)-dione] | 294% | 11.6 µM | – |
| CCC(C)c1nc2c(c(=O)c3ccccc3n2C)c(=O)n1C1CCCC1 (centres unmarked) [Example 2.4, 2-(sec-butyl)-3-cyclopentyl-10-methylpyrimido[4,5-b]quinoline-4,5(3H,10H)-dione] | 258% | 6.1 µM | – |
| Cn1c2ccccc2c(=O)c2c(=O)n(-c3ccccc3)c(C3CC(C)(C)C3)nc21 [Example 1.7, 2-(3,3-dimethylcyclobutyl)-10-methyl-3-phenylpyrimido[4,5-b]quinoline-4,5(3H,10H)-dione] | 7% | 3.8 µM | – |
| Cn1c2ccccc2c(=O)c2c(=O)n(C3CCCCCC3)c(-c3cccs3)nc21 [Example 2.22, 3-cycloheptyl-10-methyl-2-(thiophen-2-yl)pyrimido[4,5-b]quinoline-4,5(3H,10H)-dione] | 197% | 11 µM | – |
| CCc1nc2c(c(=O)c3ccccc3n2C)c(=O)n1-c1cc(C)cc(C)c1 [Example 1.33, 3-(3,5-dimethylphenyl)-2-ethyl-10-methylpyrimido[4,5-b]quinoline-4,5(3H,10H)-dione] | 16% | 0.7 µM | – |
| O=c1c2ccccc2[nH]c2nc(C3CCC3)n(-c3ccccc3)c(=O)c12 [Example 1.5, 2-cyclobutyl-3-phenylpyrimido[4,5-b]quinoline-4,5(3H,10H)-dione] | 170% | 1.1 µM | – |
| Cn1c2ccccc2c(=O)c2c(=O)n(C3CCCC3)c(-c3ccccc3)nc21 [Example 2.39, 3-cyclopentyl-10-methyl-2-phenylpyrimido[4,5-b]quinoline-4,5(3H,10H)-dione] | – | – | Emax at 50 µM (measured at 50 μM compound concentration (footnote e), read-out: Amax [%]: % nonsense mutation suppression relative to paromomycin reference activity): 31% |
| CC(C)c1nc2c(c(=O)c3cc(F)ccc3n2C)c(=O)n1-c1ccccc1 [Example 1.23, 7-fluoro-2-isopropyl-10-methyl-3-phenylpyrimido[4,5-b]quinoline-4,5(3H,10H)-dione] | 139% | 13.4 µM | – |
| CCCc1nc2c(c(=O)c3ccccc3n2C)c(=O)n1C1CCCCCC1 [Example 2.23, 3-cycloheptyl-10-methyl-2-propylpyrimido[4,5-b]quinoline-4,5(3H,10H)-dione] | 181% | 5 µM | – |
| Cc1ccc(-c2nc3c(c(=O)c4ccccc4n3C)c(=O)n2C2CCCCC2)cc1 [Example 2.36, 3-cyclohexyl-10-methyl-2-(p-tolyl)pyrimido[4,5-b]quinoline-4,5(3H,10H)-dione] | 29% | 3.5 µM | – |
